Measured values published in ChEMBL document CHEMBL1141406, “Design, synthesis, and evaluation of naphthalene-sulfonamide antagonists of human CCR8” (J Med Chem, 2007).
Several values for one entry are separate records, joined by “and”; a condition that tells them apart may be missing. Equal values may be shown once.

These compounds were tested against C-C chemokine receptor type 8 (Homo sapiens, UniProt P51685) (assay: Binding affinity to human CCR8 expressed in L1.2 cells by FMAT assay).
Type: cell-based

C-C chemokine receptor type 8, sequence (P51685 whole entry): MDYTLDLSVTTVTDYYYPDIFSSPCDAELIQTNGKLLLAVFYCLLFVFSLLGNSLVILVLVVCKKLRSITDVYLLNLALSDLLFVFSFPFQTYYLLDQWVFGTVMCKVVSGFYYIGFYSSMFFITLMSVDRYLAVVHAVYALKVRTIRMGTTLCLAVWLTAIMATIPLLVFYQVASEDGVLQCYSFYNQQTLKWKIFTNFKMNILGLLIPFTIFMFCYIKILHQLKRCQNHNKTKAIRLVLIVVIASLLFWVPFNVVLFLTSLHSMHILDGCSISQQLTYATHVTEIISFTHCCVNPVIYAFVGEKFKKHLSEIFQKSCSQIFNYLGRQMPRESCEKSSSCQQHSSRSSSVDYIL

Structure (SMILES)	Ki
O=C(Nc1ccc(S(=O)(=O)Nc2ccccc2)c2ccccc12)c1ccccc1	1760 nM
Cc1ccccc1C(=O)Nc1ccc(S(=O)(=O)NC2CCN(C(=O)[C@@H]3CCCN3)CC2)c2ccccc12	0.7 nM and 1 nM
CCOC(=O)N1CCC(NS(=O)(=O)c2cccc3c(NC(=O)c4ccccc4)cccc23)CC1	2.3 nM
Cc1ccccc1C(=O)Nc1ccc(S(=O)(=O)NC2CCN(C(=O)C3CNC3)CC2)c2ccccc12	1.5 nM
Cc1ccccc1C(=O)Nc1ccc(S(=O)(=O)NC2CCN(C(=O)N(C)C)CC2)c2ccccc12	1.6 nM
Cc1ccccc1C(=O)Nc1ccc(S(=O)(=O)NC2CCN(C(N)=O)CC2)c2ccccc12	243 nM
CCOC(=O)N1CCC(NS(=O)(=O)c2ccc(N)c3ccccc23)CC1	> 5000 nM
COc1ccc(NS(=O)(=O)c2ccc(N(C)C(=O)c3ccccc3)c3ccccc23)cc1	> 15000 nM
COc1ccc(NS(=O)(=O)c2ccc(N3C(=O)c4ccccc4C3=O)c3ccccc23)cc1	> 44000 nM
CCCC(=O)N1CC(NS(=O)(=O)c2ccc(NC(=O)c3ccccc3C)c3ccccc23)C1	50.9 nM
CCOC(=O)N1CCC(NS(=O)(=O)c2ccc(OCc3ccccc3)c3ccccc23)CC1	37.9 nM
CCOC(=O)N1CCC(NS(=O)(=O)c2ccc(OC(=O)c3ccccc3)c3ccccc23)CC1	16.4 nM
O=C(Nc1ccc(S(=O)(=O)NC2CCNCC2)c2ccccc12)c1ccccc1	578 nM
CC(C)(C)OC(=O)N1CCC(NS(=O)(=O)c2ccc(NC(=O)c3ccccc3)c3ccccc23)CC1	15.2 nM
Cc1ccccc1C(=O)Nc1ccc(S(=O)(=O)NC2CCN(C(=O)CCCCN)CC2)c2ccccc12	199 nM
CCN(CC)S(=O)(=O)c1ccc(NC(=O)c2ccccc2)c2ccccc12	> 30000 nM
CCOC(=O)N1CCC(NS(=O)(=O)c2ccc(NCCCc3ccccc3)c3ccccc23)CC1	32.1 nM
Cc1ccccc1C(=O)Nc1ccc(S(=O)(=O)NC2CCN(C(=O)N3CCOCC3)CC2)c2ccccc12	6.3 nM
Cc1ccccc1C(=O)Nc1ccc(S(=O)(=O)NC2CCN(C(=O)CCCN)CC2)c2ccccc12	1.5 nM

Structure (SMILES)	Ki
CN(c1ccccc1)S(=O)(=O)c1ccc(NC(=O)c2ccccc2)c2ccccc12	> 44000 nM
COCC(=O)N1CCC(NS(=O)(=O)c2ccc(NC(=O)c3ccccc3C)c3ccccc23)CC1	15.8 nM
Cc1ccccc1C(=O)Nc1ccc(S(=O)(=O)NC2CCN(C(=O)N3CCC3)CC2)c2ccccc12	3.5 nM
CN1CCN(S(=O)(=O)c2ccc(NC(=O)c3ccccc3)c3ccccc23)CC1	> 30000 nM
CCN(CC)CCCC(=O)N1CCC(NS(=O)(=O)c2ccc(NC(=O)c3ccccc3C)c3ccccc23)CC1	567 nM
Cc1ccccc1C(=O)Nc1ccc(S(=O)(=O)NC2CCN(C(=O)c3ccccc3)CC2)c2ccccc12	81.1 nM
O=C(Nc1ccc(S(=O)(=O)NC2CCCCC2)c2ccccc12)c1ccccc1	4.4 nM
Cc1ccccc1C(=O)Nc1ccc(S(=O)(=O)NC2CCN(C(=O)N3CCCC3)CC2)c2ccccc12	1.1 nM
CCOC(=O)N1CCC(NS(=O)(=O)c2ccc(O)c3ccccc23)CC1	> 5000 nM
Cc1ccccc1C(=O)Nc1ccc(S(=O)(=O)NC2CCN(C(=O)NC(C)C)CC2)c2ccccc12	77.7 nM
O=C(Nc1ccc(S(=O)(=O)N2CCCCC2)c2ccccc12)c1ccccc1	> 30000 nM
CCCC(=O)N1CCC(NS(=O)(=O)c2ccc(NC(=O)c3ccccc3C)c3ccccc23)C1 (racemic)	34.3 nM
Cc1ccccc1C(=O)Nc1ccc(S(=O)(=O)NC2CCN(C(=O)CO)CC2)c2ccccc12	5.4 nM
Cc1ccccc1C(=O)Nc1ccc(S(=O)(=O)NC2CCN(C(=O)CCN)CC2)c2ccccc12	11.3 nM
Cc1ccccc1C(=O)Nc1ccc(S(=O)(=O)NC2CCN(C(=O)N3CCCCC3)CC2)c2ccccc12	4.2 nM
CC(=O)N1CCC(NS(=O)(=O)c2ccc(NC(=O)c3ccccc3C)c3ccccc23)CC1	6.7 nM
O=C(Nc1ccc(S(=O)(=O)NCc2ccncc2)c2ccccc12)c1ccccc1	3280 nM
CCOC(=O)N1CCC(NS(=O)(=O)c2ccc(C(=O)Nc3ccccc3C)c3ccccc23)CC1	5.21 nM
